# In patent publication US6808904B2, “Herbicide-tolerant protox genes produced by DNA shuffling” (priority 1994, dated 2004):
# Columns and labels:
# [1] = molecular target: T1, plant protox mutants (Arabidopsis protox-1) in SASX38 (Arabidopsis thaliana, UniProt P55826, A220L/T56K); assay: Bacterial cross-tolerance testing of resistant mutant plasmids in SASX38, Arabidopsis protox-1 mutants; format: cell-based; parameters: key to Cross tolerance, AraC-1Val / Cross tolerance, AraC-2Cys / Cross tolerance, AraC-1Thr / Cross tolerance, AraC-3Thr / Cross tolerance, AraC-2Ile / Cross tolerance, AraC-2Cys + AraC425Ser: + = 10× or more tolerant than WT; ++ = 100× or more tolerant than WT; − = no cross tolerance; details: mutant AraC-1Leu
# T1 construct: contains only 17 amino acids of the putative chloroplast transit peptide; expressed in transfected cells; host or cells: E. coli SASX38 (hemG mutant)
# T1 sequence (P55826 41-537 T56K/A220L): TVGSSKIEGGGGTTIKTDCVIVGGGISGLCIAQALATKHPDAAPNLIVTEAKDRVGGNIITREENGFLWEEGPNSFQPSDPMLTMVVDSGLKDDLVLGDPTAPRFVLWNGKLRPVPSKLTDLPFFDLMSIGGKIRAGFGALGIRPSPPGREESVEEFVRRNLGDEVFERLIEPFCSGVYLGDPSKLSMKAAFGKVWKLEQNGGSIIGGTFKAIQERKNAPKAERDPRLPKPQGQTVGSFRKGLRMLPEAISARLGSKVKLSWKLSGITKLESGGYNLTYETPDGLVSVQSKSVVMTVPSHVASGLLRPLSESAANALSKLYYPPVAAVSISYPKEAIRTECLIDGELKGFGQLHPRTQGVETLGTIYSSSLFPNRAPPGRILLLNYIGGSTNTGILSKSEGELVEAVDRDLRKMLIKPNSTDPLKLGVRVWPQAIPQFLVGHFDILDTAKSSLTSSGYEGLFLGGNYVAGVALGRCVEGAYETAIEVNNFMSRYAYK
# Experimental: (§1) Resistant mutant plasmids, originally identified based on resistance against a single protox inhibitory herbicide, were tested against a spectrum of other protox inhibiting compounds. For this test, the SASX38 strain containing the wild-type plasmid is plated on a range of concentrations of each compound to determine the lethal concentration for each one. Resistant mutant plasmids in SASX38 are plated and scored for the ability to survive on a concentration of each compound at least 10 fold higher than the concentration that is lethal to the SASX38 strain containing the wild-type plasmid.
# [2] = molecular target: T2, plant protox mutants (Arabidopsis protox-1) in SASX38 (Arabidopsis thaliana, UniProt P55826, A220T/T56K); assay: as above; format: cell-based; parameters: key to Cross tolerance, AraC-1Val / Cross tolerance, AraC-2Cys / Cross tolerance, AraC-1Thr / Cross tolerance, AraC-3Thr / Cross tolerance, AraC-2Ile / Cross tolerance, AraC-2Cys + AraC425Ser: + = 10× or more tolerant than WT; ++ = 100× or more tolerant than WT; − = no cross tolerance; details: mutant AraC-1Thr vs WT plasmid in SASX38
# T2 construct: contains only 17 amino acids of the putative chloroplast transit peptide; expressed in transfected cells; host or cells: E. coli SASX38 (hemG mutant)
# T2 sequence (P55826 41-537 T56K/A220T): as the sequence (P55826 41-537 T56K/A220L) above, with L180T counted along it
# Experimental: as §1
# [3] = molecular target: T3, plant protox mutants (Arabidopsis protox-1) in SASX38 (Arabidopsis thaliana, UniProt P55826, N425S/T56K/Y426C); assay: as above; format: cell-based; parameters: key to Cross tolerance, AraC-1Val / Cross tolerance, AraC-2Cys / Cross tolerance, AraC-1Thr / Cross tolerance, AraC-3Thr / Cross tolerance, AraC-2Ile / Cross tolerance, AraC-2Cys + AraC425Ser: + = 10× or more tolerant than WT; ++ = 100× or more tolerant than WT; − = no cross tolerance; details: mutant AraC-2Cys + AraC425Ser
# T3 construct: contains only 17 amino acids of the putative chloroplast transit peptide; expressed in transfected cells; host or cells: E. coli SASX38 (hemG mutant)
# T3 sequence (P55826 41-537 T56K/N425S/Y426C): as the sequence (P55826 41-537 T56K/A220L) above, with L180A, N385S, Y386C counted along it
# Experimental: as §1
# [4] = molecular target: T4, plant protox mutants (Arabidopsis protox-1) in SASX38 (Arabidopsis thaliana, UniProt P55826, N425S/T56K/Y426L); assay: as above; format: cell-based; parameters: key to Cross tolerance, AraC-1Val / Cross tolerance, AraC-2Cys / Cross tolerance, AraC-1Thr / Cross tolerance, AraC-3Thr / Cross tolerance, AraC-2Ile / Cross tolerance, AraC-2Cys + AraC425Ser: + = 10× or more tolerant than WT; ++ = 100× or more tolerant than WT; − = no cross tolerance; details: mutant AraC-2Leu + AraC425Ser
# T4 construct: contains only 17 amino acids of the putative chloroplast transit peptide; expressed in transfected cells; host or cells: E. coli SASX38 (hemG mutant)
# T4 sequence (P55826 41-537 T56K/N425S/Y426L): as the sequence (P55826 41-537 T56K/A220L) above, with L180A, N385S, Y386L counted along it
# Experimental: as §1
# [5] = molecular target: T5, plant protox mutants (Arabidopsis protox-1) in SASX38 (Arabidopsis thaliana, UniProt P55826, N425S/T56K/Y426M); assay: as above; format: cell-based; parameters: key to Cross tolerance, AraC-1Val / Cross tolerance, AraC-2Cys / Cross tolerance, AraC-1Thr / Cross tolerance, AraC-3Thr / Cross tolerance, AraC-2Ile / Cross tolerance, AraC-2Cys + AraC425Ser: + = 10× or more tolerant than WT; ++ = 100× or more tolerant than WT; − = no cross tolerance; details: mutant AraC-2Met + AraC425Ser
# T5 construct: contains only 17 amino acids of the putative chloroplast transit peptide; expressed in transfected cells; host or cells: E. coli SASX38 (hemG mutant)
# T5 sequence (P55826 41-537 T56K/N425S/Y426M): as the sequence (P55826 41-537 T56K/A220L) above, with L180A, N385S, Y386M counted along it
# Experimental: as §1
# [6] = system: Arabidopsis line expressing AraC-2Ile+AraC305Leu; assay: Cross tolerance in a seed germination assay, homozygous Arabidopsis line with AraC-2Ile+AraC305Leu; format: in vivo, Arabidopsis thaliana; details: AraC-2Ile+AraC305Leu line vs wt
# Experimental: Using the procedure described above, an Arabidopsis protox-1 cDNA containing a TAC to ATG (Tyrosine to Methionine) change at nucleotides 1306-1308 in the protox-1 sequence (SEQ ID NO:1) was fused to the native protox-1 promoter fragment and transformed into Arabidopsis thaliana. […] Seed from the vacuum infiltrated plants was collected and plated on a range (10.0 nM-1.0 uM) of a protox inhibitory aryluracil herbicide of formula XVII. Multiple experiments with wild type Arabidopsis have shown that a 10.0 nM concentration of this compound is sufficient to prevent normal seedling germination. Transgenic seeds expressing the AraC-2Met altered enzyme fused to the native protox-1 promoter produced normal Arabidopsis seedlings at herbicide concentrations up to 500 nM, indicating at least 50-fold higher herbicide tolerance when compared to wild-type Arabidopsis. This promoter/altered protox enzyme fusion therefore functions as an effective selectable marker for plant transformation. Several of the plants that germinated on 100.0 nM of protox-inhibiting herbicide were transplanted to soil, grown 2-3 weeks, and tested in a spray assay with various concentrations of the protox-inhibiting herbicide. When compared to empty vector control transformants, the AraPT1Pro/AraC-2Met transgenics were >10-fold more tolerant to the herbicide spray.
# Using the procedure described above, an Arabidopsis protox-1 cDNA containing both a TAC to ATC (tyrosine to isoleucine) change at nucleotides 1306-1308 and a TCA to TTA (serine to leucine) change at nucleotides 945-947 in the protox-1 sequence (SEQ ID NO:1) was fused to the native protox-1 promoter fragment and transformed into Arabidopsis thaliana.
compound,measurement,setting,value
COC(=O)CSc1cc(N=c2sc(=O)n3n2CCCC3)c(F)cc1Cl [VIIa],"Cross tolerance, AraC-1Leu",[1],++ (++ = 100× or more tolerant than WT)
same,"Cross tolerance, AraC-1Thr",[2],+ (+ = 10× or more tolerant than WT)
same,"Cross tolerance, AraC-2Cys + AraC425Ser",[3],++ (++ = 100× or more tolerant than WT)
same,"Cross tolerance, AraC-2Leu + AraC425Ser",[4],++ (++ = 100× or more tolerant than WT)
same,"Cross tolerance, AraC-2Met + AraC425Ser",[5],++ (++ = 100× or more tolerant than WT)
same,Tolerance,[6],++ (++ ≧ 100× more tolerant than wt)
CCOC(=O)COC(=O)c1cc(Oc2ccc(C(F)(F)F)cc2Cl)ccc1[N+](=O)[O-] [IV],"Cross tolerance, AraC-1Leu",[1],++ (++ = 100× or more tolerant than WT)
same,"Cross tolerance, AraC-1Thr",[2],++ (++ = 100× or more tolerant than WT)
same,"Cross tolerance, AraC-2Cys + AraC425Ser",[3],−
same,"Cross tolerance, AraC-2Leu + AraC425Ser",[4],+ (+ = 10× or more tolerant than WT)
same,"Cross tolerance, AraC-2Met + AraC425Ser",[5],+ (+ = 10× or more tolerant than WT)
same,Tolerance,[6],± (± ≦ 10× more tolerant than wt)
CCCCCOC(=O)COc1cc(N2C(=O)C3=C(CCCC3)C2=O)c(F)cc1Cl [XIV],"Cross tolerance, AraC-1Leu",[1],++ (++ = 100× or more tolerant than WT)
same,"Cross tolerance, AraC-1Thr",[2],+ (+ = 10× or more tolerant than WT)
same,"Cross tolerance, AraC-2Cys + AraC425Ser",[3],−
same,"Cross tolerance, AraC-2Leu + AraC425Ser",[4],++ (++ = 100× or more tolerant than WT)
same,"Cross tolerance, AraC-2Met + AraC425Ser",[5],++ (++ = 100× or more tolerant than WT)
same,Tolerance,[6],+ (+ ≧ 10× more tolerant than wt)
CC(C)OC(=O)c1cc(-n2c(=O)cc(C(F)(F)F)n(C)c2=O)ccc1Cl [XI],"Cross tolerance, AraC-1Leu",[1],++ (++ = 100× or more tolerant than WT)
same,"Cross tolerance, AraC-1Thr",[2],+ (+ = 10× or more tolerant than WT)
same,"Cross tolerance, AraC-2Cys + AraC425Ser",[3],++ (++ = 100× or more tolerant than WT)
same,"Cross tolerance, AraC-2Leu + AraC425Ser",[4],++ (++ = 100× or more tolerant than WT)
same,"Cross tolerance, AraC-2Met + AraC425Ser",[5],++ (++ = 100× or more tolerant than WT)
same,Tolerance,[6],++ (++ ≧ 100× more tolerant than wt)
